From patent US20080280288A1, “Assay Method to Predict Sensitivity of Cancer Cell to Anticancer Drug” (priority 2004, published 2008)
“Also recorded” adds a separate entry of the source.

Tests used:
[1] = system: OVCAR3 (ovarian) human cancer cell line; experiment: OVCAR3 subcutaneous xenograft in nude mice, relative tumor volume ratio; format: in vivo; conditions: OVCAR3 s.c. in nude mice; intravenously 10 mg/kg/day for five days
Procedure: (§1) The 25 human cancer cells proliferated in culture flasks or in the subcutaneous tissues of the nude mice were subcutaneously implanted to the bodysides of nude mice, and the mice were classified into a group of 5 control mice and a group of 5 treated mice of the compound 2 so that the average tumor volume of each group was uniform at the time of a tumor volume of 100 mm^3 or larger. The mice of the treated group were intravenously infused at 10 mg/kg/day for five days, and the mice of the control group were not treated or infused with the vehicle. The tumor volume was measured from day 1, subsequently measured over time on Day 5, 8, 12, 15, and a relative tumor volume ratio (T/C %)was estimated.
(§2) The cancer cells proliferated in culture flasks or in the subcutaneous tissues of the nude mice were subcutaneously implanted to the bodysides of nude mice, and the mice were classified into a group of 5 control mice and a group of 5 treated mice of the compounds so that the average tumor volume of each group was uniform at the time of a tumor volume of 100 mm^3 or larger. The mice of the treated group were intravenously infused at 10 mg/kg/day for five days, and the mice of the control group were not treated or infused with the vehicle. The tumor volume was measured from Day 1, and subsequently measured over time on Day 5, 8, 12, 15, and the relative tumor volume ratio was estimated. […]

[2] = system: BSY-1 (breast) human cancer cell line; experiment: BSY-1 subcutaneous xenograft in nude mice, relative tumor volume ratio; format: in vivo; conditions: for Tumor volume ratio (T/C %): BSY-1 s.c. in nude mice, intravenously 10 mg/kg/day for five days
Procedure: as §1
(§3) The cancer cells proliferated in culture flasks or in the subcutaneous tissues of the nude mice were subcutaneously implanted to the bodysides of nude mice, and the mice were classified into a group of 5 control mice and a group of 5 treated mice of the compounds so that the average tumor volume of each group was uniform at the time of a tumor volume of 100 mm^3 or larger. The mice of the treated group were intravenously infused at 10 mg/kg/day for five days, and the mice of the control group were not treated or infused with the vehicle. The tumor volume was measured from Day 1, and subsequently measured over time on Day 5, 8, 12, 15, and the relative tumor volume ratio was estimated. However, the experiment was basically discontinued at Day 15 in evaluation of the compound 1. In Table 2, the T/C % of the compounds 1, 2, 4 and the compound 2 in Example 2 to each cancer cell are shown.

[3] = system: HT-29 (colorectal) human cancer cell line; experiment: HT-29 subcutaneous xenograft in nude mice, relative tumor volume ratio; format: in vivo; conditions: HT-29 s.c. in nude mice; intravenously 10 mg/kg/day for five days
Procedure: as §1, §3

[4] = system: NCI-H596 (NSCLC) human cancer cell line; experiment: NCI-H596 subcutaneous xenograft in nude mice, relative tumor volume ratio; format: in vivo; conditions: NCI-H596 s.c. in nude mice; intravenously 10 mg/kg/day for five days
Procedure: as §1, §2

[5] = system: MDA-MB435 (breast) human cancer cell line; experiment: MDA-MB435 subcutaneous xenograft in nude mice, relative tumor volume ratio; format: in vivo; conditions: MDA-MB435 s.c. in nude mice; intravenously 10 mg/kg/day for five days
Procedure: as §1, §2

[6] = system: DLD-1 (colorectal) human cancer cell line; experiment: DLD-1 subcutaneous xenograft in nude mice, relative tumor volume ratio; format: in vivo; conditions: DLD-1 s.c. in nude mice; intravenously 10 mg/kg/day for five days
Procedure: as §1, §2

[7] = system: WiDr (colorectal) human cancer cell line; experiment: WiDr subcutaneous xenograft in nude mice, relative tumor volume ratio; format: in vivo; conditions: WiDr s.c. in nude mice; intravenously 10 mg/kg/day for five days
Procedure: as §1, §3

[8] = system: DU145 (prostate) human cancer cell line; experiment: DU145 subcutaneous xenograft in nude mice, relative tumor volume ratio; format: in vivo; conditions: DU145 s.c. in nude mice; intravenously 10 mg/kg/day for five days
Procedure: as §1, §3

[9] = system: PC-3 (prostate) human cancer cell line; experiment: PC-3 subcutaneous xenograft in nude mice, relative tumor volume ratio; format: in vivo; conditions: PC-3 s.c. in nude mice; intravenously 10 mg/kg/day for five days
Procedure: as §1, §3

[10] = system: NCI-H522 (SCLC) human cancer cell line; experiment: NCI-H522 subcutaneous xenograft in nude mice, relative tumor volume ratio; format: in vivo; conditions: NCI-H522 s.c. in nude mice; intravenously 10 mg/kg/day for five days
Procedure: as §1, §2

[11] = system: NCI-H460 (NSCLC) human cancer cell line; experiment: NCI-H460 subcutaneous xenograft in nude mice, relative tumor volume ratio; format: in vivo; conditions: for Tumor volume ratio (T/C %): NCI-H460 s.c. in nude mice, intravenously 10 mg/kg/day for five days
Procedure: as §1, §3

[12] = system: human breast cancer cell line (BSY-1); conditions: reported in WO 02/060890, WO 03/099813, WO 04/011661; cited from earlier work
[13] = system: FaDu (head & neck) human cancer cell line; experiment: FaDu subcutaneous xenograft in nude mice, relative tumor volume ratio; format: in vivo; conditions: FaDu s.c. in nude mice; intravenously 10 mg/kg/day for five days
Procedure: as §1, §3

[14] = system: LC-6-JCK (NSCLC) human cancer cell line; experiment: LC-6-JCK subcutaneous xenograft in nude mice, relative tumor volume ratio; format: in vivo; conditions: LC-6-JCK s.c. in nude mice; intravenously 10 mg/kg/day for five days
Procedure: as §1, §2

[15] = system: NCI-H510 (SCLC) human cancer cell line; experiment: NCI-H510 subcutaneous xenograft in nude mice, relative tumor volume ratio; format: in vivo; conditions: NCI-H510 s.c. in nude mice; intravenously 10 mg/kg/day for five days
Procedure: as §1

[16] = system: MDA-MB468 (breast) human cancer cell line; experiment: MDA-MB468 subcutaneous xenograft in nude mice, relative tumor volume ratio; format: in vivo; conditions: MDA-MB468 s.c. in nude mice; intravenously 10 mg/kg/day for five days
Procedure: as §1

[17] = system: NCI-H526 (SCLC) human cancer cell line; experiment: NCI-H526 subcutaneous xenograft in nude mice, relative tumor volume ratio; format: in vivo
Procedure: as §1

[18] = system: KM12 (colorectal) human cancer cell line; experiment: KM12 subcutaneous xenograft in nude mice, relative tumor volume ratio; format: in vivo; conditions: KM12 s.c. in nude mice; intravenously 10 mg/kg/day for five days
Procedure: as §1

[19] = system: HBC4 (breast) human cancer cell line; experiment: HBC4 subcutaneous xenograft in nude mice, relative tumor volume ratio; format: in vivo; conditions: HBC4 s.c. in nude mice; intravenously 10 mg/kg/day for five days
Procedure: as §1

[20] = system: KPL-4 (breast) human cancer cell line; experiment: KPL-4 subcutaneous xenograft in nude mice, relative tumor volume ratio; format: in vivo; conditions: KPL-4 s.c. in nude mice; intravenously 10 mg/kg/day for five days
Procedure: as §1

[21] = system: Calu-1 (NSCLC) human cancer cell line; experiment: Calu-1 subcutaneous xenograft in nude mice, relative tumor volume ratio; format: in vivo; conditions: Calu-1 s.c. in nude mice; intravenously 10 mg/kg/day for five days
Procedure: as §1

[22] = system: SK-OV-3 (ovarian) human cancer cell line; experiment: SK-OV-3 subcutaneous xenograft in nude mice, relative tumor volume ratio; format: in vivo; conditions: SK-OV-3 s.c. in nude mice; intravenously 10 mg/kg/day for five days
Procedure: as §1

[23] = system: Lu99 (NSCLC) human cancer cell line; experiment: Lu99 subcutaneous xenograft in nude mice, relative tumor volume ratio; format: in vivo; conditions: Lu99 s.c. in nude mice; intravenously 10 mg/kg/day for five days
Procedure: as §1

[24] = system: SW620 (colorectal) human cancer cell line; experiment: SW620 subcutaneous xenograft in nude mice, relative tumor volume ratio; format: in vivo; conditions: SW620 s.c. in nude mice; intravenously 10 mg/kg/day for five days
Procedure: as §1, §2

[25] = system: NCI-H69 (SCLC) human cancer cell line; experiment: NCI-H69 subcutaneous xenograft in nude mice, relative tumor volume ratio; format: in vivo; conditions: NCI-H69 s.c. in nude mice; intravenously 10 mg/kg/day for five days
Procedure: as §1

[26] = system: NCI-H146 (SCLC) human cancer cell line; experiment: NCI-H146 subcutaneous xenograft in nude mice, relative tumor volume ratio; format: in vivo
Procedure: as §1

[27] = system: human colon cancer cell line (WiDr); conditions: reported in WO 03/099813 and related filings; cited from earlier work

Row | SMILES | Tumor volume ratio (T/C %) [1] [%] | Tumor volume ratio (T/C %) [2] [%] | Tumor volume ratio (T/C %) [3] [%] | Tumor volume ratio (T/C %) [4] [%] | Tumor volume ratio (T/C %) [5] [%] | Tumor volume ratio (T/C %) [6] [%] | Tumor volume ratio (T/C %) [7] [%] | Tumor volume ratio (T/C %) [8] [%] | Tumor volume ratio (T/C %) [9] [%] | Tumor volume ratio (T/C %) [10] [%] | Tumor volume ratio (T/C %) [11] [%] | Tumor volume ratio (T/C %) [13] [%] | Tumor volume ratio (T/C %) [14] [%] | Tumor volume ratio (T/C %) [24] [%] | Antitumor activity to WiDr (in words) [27] | other results
1 | CCC(O)C(C)C1OC1CC(C)/C=C/C=C(\C)C1OC(=O)CC(O)CCC(C)(O)C(OC(C)=O)/C=C/C1C (stereo not drawn) [Compound 1, (8E,12E,14E)-7-acetoxy-3,6,21-trihydroxy-6,10,12,16,20-pentamethyl-18,19-epoxytricosane-8,12,14-trien-11-olide] | 23 | 0 | 58 | 76 | 50 | 59 | 29 | 26 | 20 | 64 | 53 | 33 |  |  |  | Antitumor activity to BSY-1 (in words) [12]: high sensitivity; also recorded: high antitumor activity
2 | CCC(O)C(C)C1OC1CC(C)(O)/C=C/C=C(\C)C1OC(=O)CC(O)CCC(C)(O)C(OC(=O)N2CCN(C3CCCCCC3)CC2)/C=C/C1C (stereo not drawn) [Compound 2, (8E,12E,14E)-7-((4-cycloheptylpiperazin-1-yl)carbonyl)oxy-3,6,16,21-tetrahydroxy-6,10,12,16,20-pentamethyl-18,19-epoxytricosane-8,12,14-trien-11-olide] | 0 | 0 | 28 | 18 | 28 | 47 | 4 | 28 | 2 | 42 | 33 | 3 | 0 | 28 |  | Tumor volume ratio (T/C %) [15]: 10%; Tumor volume ratio (T/C %) [16]: 0%; Sensitivity of the cancer cell line to the compound (in words) ([17]; H526 xenograft in nude mice): high sensitivity without remission; Tumor volume ratio (T/C %) ([17]; NCI-H526 s.c. in nude mice, intravenously 10 mg/kg/day for five days): 1%; Sensitivity of the cancer cell line to the compound (in words) ([2]; BSY-1 xenograft in nude mice): high sensitivity until remission; Tumor volume ratio (T/C %) [18]: 34%; Tumor volume ratio (T/C %) [19]: 5%; Tumor volume ratio (T/C %) [20]: 23%; Tumor volume ratio (T/C %) [21]: 55%; Tumor volume ratio (T/C %) [22]: 27%; Tumor volume ratio (T/C %) [23]: 8%; Sensitivity of the cancer cell line to the compound (in words) ([11]; H460 xenograft in nude mice): low sensitivity; Tumor volume ratio (T/C %) [25]: 1%; Tumor volume ratio (T/C %) ([26]; NCI-H146 s.c. in nude mice, intravenously 10 mg/kg/day for five days): 1%; Course of the tumor (in words) ([26]; NCI-H146 xenograft in nude mice, tumor not eliminated): consecutive reduction of the tumor for a long term
3 | CCC(O)C(C)C1OC1CC(C)(O)/C=C/C=C(\C)C1OC(=O)CC(O)CCC(C)(O)C(OC(=O)N2CCN(C(C)C)CC2)/C=C/C1C (stereo not drawn) [Compound 3, (8E,12E,14E)-3,6,16,21-tetrahydroxy-7-((4-isopropylpiperazin-1-yl)carbonyl)oxy-6,10,12,16,20-pentamethyl-18,19-epoxytricosane-8,12,14-trien-11-olide] |  | 2 | 26 |  |  |  | 4 | 34 | 4 |  |  | 1 | 0 | 19 | antitumor activity | 
4 | CCC(O)C(C)C1OC1CC(C)(O)/C=C/C=C(\C)C1OC(=O)CC(O)CCC(C)(O)C(OC(=O)N2CCN(C)CC2)/C=C/C1C (stereo not drawn) [Compound 4, (8E,12E,14E)-3,6,16,21-tetrahydroxy-6,10,12,16,20-pentamethyl-7-((4-methylpiperazin-1-yl)-carbonyl)oxy-18,19-epoxytricosane-8,12,14-trien-11-olide] |  |  | 46 |  |  |  | 7 | 26 | 3 |  |  | 5 |  |  | antitumor activity | 
